Laboratory results as given in patent US8394848B2, “Compounds that modulate intracellular calcium” (Calcimedica, Inc., priority 2008, dated 2013).

System: JR251 or RBL cells
Test: Store-operated calcium entry, either JR251 or RBL cells, or both
Type: cell-based
Method in brief: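 Orai1/STIM1 stable cells: fluo-4-AM loaded, compound 30 min at RT in Ca2+-free HBSS, then CaCl2 added; IC50 from Peak-Basal FLIPR fluorescence. RBL-2H3 cells: compound 5 min, then thapsigargin (5.5× stock, 5.5 uM) 25 min, then calcium added; IC50 from Upslope (signal 7 s after calcium minus baseline).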

Row | Structure (SMILES) | IC50 [µM]
1 | O=C(O)c1c(-c2ccc(Cl)cc2)csc1NC(=O)C1Cc2ccccc2N1 (stereo not shown) [4-(4-chlorophenyl)-2-(indoline-2-carboxamido)thiophene-3-carboxylic acid] | < 10
2 | O=C(O)c1c(-c2ccc(Cl)cc2)csc1NC(=O)N1Cc2ccccc2C1 [4-(4-chlorophenyl)-2-(isoindoline-2-carboxamido)thiophene-3-carboxylic acid] | < 10
3 | O=C(Nc1scc(-c2ccc(Cl)cc2)c1C(=O)O)c1ccncc1 [4-(4-chlorophenyl)-2-(isonicotinamido)thiophene-3-carboxylic acid] | < 10
4 | O=C(Nc1scc(-c2ccc(Cl)cc2)c1C(=O)O)c1ccno1 [4-(4-chlorophenyl)-2-(isoxazole-5-carboxamido)thiophene-3-carboxylic acid] | < 10
5 | O=C(Nc1scc(-c2ccc(Cl)cc2)c1C(=O)O)c1cc2ccccn2n1 [4-(4-chlorophenyl)-2-(pyrazolo[1,5-a]pyridine-2-carboxamido)thiophene-3-carboxylic acid] | < 10
6 | O=C(Nc1scc(-c2ccc(Cl)cc2)c1C(=O)O)c1cc2ncccn2n1 [4-(4-chlorophenyl)-2-(pyrazolo[1,5-a]pyrimidine-2-carboxamido)thiophene-3-carboxylic acid] | < 10
7 | O=C(Nc1scc(-c2ccc(Cl)cc2)c1C(=O)O)c1ncc2ccccc2n1 [4-(4-chlorophenyl)-2-(quinazoline-2-carboxamido)thiophene-3-carboxylic acid] | < 10
8 | O=C(Nc1scc(-c2ccc(Cl)cc2)c1C(=O)O)c1ccc2ccccc2n1 [4-(4-chlorophenyl)-2-(quinoline-2-carboxamido)thiophene-3-carboxylic acid] | < 10
9 | O=C(Nc1scc(-c2ccc(Cl)cc2)c1C(=O)O)c1cnc2ccccc2n1 [4-(4-chlorophenyl)-2-(quinoxaline-2-carboxamido)thiophene-3-carboxylic acid] | < 10
10 | O=C(Nc1scc(-c2ccc(Cl)cc2)c1C(=O)O)c1cscn1 [4-(4-chlorophenyl)-2-(thiazole-4-carboxamido)thiophene-3-carboxylic acid] | < 10
11 | O=C(Nc1scc(-c2ccc(Cl)cc2)c1C(=O)O)c1cc2nccnc2s1 [4-(4-chlorophenyl)-2-(thieno[2,3-b]pyrazine-6-carboxamido)thiophene-3-carboxylic acid] | < 10
12 | O=C(O)c1c(-c2ccc(Cl)cc2)csc1NC(=O)c1csc2nnsc12 [4-(4-chlorophenyl)-2-(thieno[2,3-d][1,2,3]thiadiazole-6-carboxamido)thiophene-3-carboxylic acid] | < 10
13 | O=C(Nc1scc(-c2ccc(Cl)cc2)c1C(=O)O)c1cc2sccc2s1 [4-(4-chlorophenyl)-2-(thieno[3,2-b]thiophene-2-carboxamido)thiophene-3-carboxylic acid] | < 10
14 | O=C(Nc1scc(-c2ccc(Cl)cc2)c1C(=O)O)c1ccsc1 [4-(4-chlorophenyl)-2-(thiophene-3-carboxamido)thiophene-3-carboxylic acid] | < 10
15 | N#Cc1ccc(-c2csc(NC(=O)CCc3ccccc3)c2C(=O)O)cc1 [4-(4-cyanophenyl)-2-(3-phenylpropanamido)thiophene-3-carboxylic acid] | < 10
16 | N#Cc1ccc(-c2csc(NC(=O)c3cc4sccc4s3)c2C(=O)O)cc1 [4-(4-cyanophenyl)-2-(thieno[3,2-b]thiophene-2-carboxamido)thiophene-3-carboxylic acid] | < 10
17 | O=C(CCc1ccccc1)Nc1scc(-c2ccc(O)cc2)c1C(=O)O [4-(4-hydroxyphenyl)-2-(3-phenylpropanamido)thiophene-3-carboxylic acid] | < 10
18 | COc1ccc(-c2csc(NC(=O)CCc3ccccc3)c2C(=O)O)cc1 [4-(4-methoxyphenyl)-2-(3-phenylpropanamido)thiophene-3-carboxylic acid] | < 10
19 | O=C(CCc1ccccc1)Nc1scc(-c2cc3cc(Cl)ccc3o2)c1C(=O)O [4-(5-chlorobenzofuran-2-yl)-2-(3-phenylpropanamido)thiophene-3-carboxylic acid] | < 10
